# Source: patent US20200157144A1, “ANTIMICROBIAL PEPTIDOMIMETICS” (priority 2017, published 2020)
# Square brackets hold non-standard residues; d marks the D form. Peptide text beside a SMILES is read from it. dBip(4'-Cl) = N[C@H](Cc1ccc(-c2ccc(Cl)cc2)cc1)C(=O)O
# Tests used:
# Assay in all cases: microbe, parasite or virus in culture
# [1] = system: Mupirocin-resistant MRSA ATCC-BAA-1556; format: cell-based, Staphylococcus aureus
# In short: (§1)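 Colonies from MH2 agar grown in cation-adjusted MH2 broth at 37° C to OD600 0.15-0.16, then diluted to ~1×10^6 CFU/mL and added to 2-fold compound dilutions (100 to 0.195 μM, duplicates). Plates incubated overnight at 35° C; OD600 measured to set the MIC.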
# [2] = system: Mupirocin-resistant MRSA ATCC-BAA-1708; format: cell-based, Staphylococcus aureus; details: ATCC-BAA-1708; read-out: MIC
# In short: as §1
# [3] = system: Mupirocin-resistant MRSA ATCC-BAA-1750 (USA200); format: cell-based, Staphylococcus aureus; details: ATCC-BAA-1750; read-out: MIC
# In short: as §1
# [4] = system: Mupirocin-susceptible MRSA ATCC-33592 (ST239); format: cell-based, Staphylococcus aureus; details: ATCC-33592; read-out: MIC
# In short: as §1
# [5] = system: Mupirocin-susceptible MRSA ATCC-700699 (VISA); format: cell-based, Staphylococcus aureus; details: ATCC-700699; read-out: MIC
# In short: as §1
# [6] = system: Mupirocin-susceptible MRSA ATCC-BAA-1681 (USA100); format: cell-based, Staphylococcus aureus; details: ATCC-BAA-1681; read-out: MIC
# In short: as §1
# [7] = system: Mupirocin-susceptible MRSA ATCC-BAA-1707 (USA400); format: cell-based, Staphylococcus aureus; details: ATCC-BAA-1707; read-out: MIC
# In short: as §1
# [8] = system: Mupirocin-susceptible MRSA ATCC-BAA-1754 (ST45); format: cell-based, Staphylococcus aureus; details: ATCC-BAA-1754; read-out: MIC
# In short: as §1
# [9] = system: Mupirocin-susceptible MRSA ATCC-BAA-1756 (USA300); format: cell-based, Staphylococcus aureus; details: ATCC-BAA-1756; read-out: MIC
# In short: as §1
# [10] = system: Mupirocin-susceptible MRSA ATCC-BAA-2762 (EMRSA15, ST22); format: cell-based, Staphylococcus aureus; details: ATCC-BAA-2762; read-out: MIC
# In short: as §1
# [11] = system: Staphylococcus aureus ATCC 19636; format: cell-based; details: ATCC 19636
# Description: (§2) The antibacterial potency of Compound 34 was measured using the in vitro broth microdilution assay under assay conditions described by the Clinical and Laboratory Standards Institute. […] The test substance was dissolved in 100% DMSO (unless stated below), suspended completely by sonication or vortexing, diluted by 2-fold serial titrations in the same vehicle, for a total of 10 test concentrations (final concentrations: 100, 50, 25, 12.5, 6.25, 3.125, 1.56, 0.78, 0.39, 0.2 μM). A 4 μL aliquot of each dilution was added to 196 μL of broth medium seeded with the organism suspension in wells of a 96 well plate (bacterial count: 2-8×10^5 colony forming units/mL final). The final volume was 200 μL in each well and the final DMSO concentration was 2 percent. The incubation time is either 1 or 2 days at 36° C. All strains tested underwent aerobic respiration, except for ATCC BAA-1805 and ATCC 29399. Following incubation, the test plates were visually examined and wells were scored for growth or complete growth inhibition to define the minimum inhibitory concentration. Each test substance was evaluated in duplicate and the results below are the duplicate test values.
# [12] = system: Staphylococcus aureus ATCC BAA-1717; format: cell-based; details: ATCC BAA-1717
# Description: as §2
# [13] = system: Staphylococcus epidermidis ATCC 12228; format: cell-based; details: ATCC 12228
# Description: as §2
# [14] = system: Enterococcus faecalis ATCC 51299; format: cell-based; details: ATCC 51299
# Description: as §2, with “values. Vehicle-control and an active reference agent were used as blank and positive controls, respectively.” for “values.”
# [15] = system: Enterococcus faecium ATCC BAA-2320; format: cell-based; details: ATCC BAA-2320
# Description: as §2, with “values. Vehicle-control and an active reference agent were used as blank and positive controls, respectively.” for “values.”
smiles,measurement,setting,value
N=C(N)NCCC[C@@H](NC(=O)[C@@H](Cc1ccc(-c2ccc(Cl)cc2)cc1)NC(=O)[C@@H](CCCNC(=N)N)NC(=O)[C@H](N)Cc1ccc(-c2ccc(Cl)cc2)cc1)C(N)=O [Compound 34] (H-[dBip(4'-Cl)][dR][dBip(4'-Cl)][dR]-NH2),MIC,"[1]; Mupirocin-resistant MRSA ATCC-BAA-1556, cation-adjusted MH2 broth, overnight 35° C., OD600, read-out: MIC",3.125 µM
same,improvement of bioactivity (lower MIC values) as compared to Compound 2,[1]; against Mupirocin-resistant MRSA strains,about 4 fold
same,MIC,[2],1.56 µM
same,MIC,[3],1.56 µM
same,MIC,[4],3.125 µM
same,MIC,[5],3.125 µM
same,MIC,[6],3.125 µM
same,MIC,[7],3.125 µM
same,MIC,[8],3.125 µM
same,MIC,[9],1.56 µM
same,MIC,[10],3.125 µM
same,MIC,[11],3.13 µM
same,MIC,[12],3.13 µM
same,MIC,[13],3.13 µM
same,MIC,[14],3.13 µM
same,MIC,[15],1.56 µM
